Patent publication EP0182984B1, “Use of fully synthetic alpha-human atrial natriuretic peptide (alpha-hANap)” (PHARMA BISSENDORF PEPTIDE GMBH, priority 1984, dated 1992)

Settings: in vivo
Text: An LD₅₀ could so far not be determined.

## CC[C@H](C)[C@@H]1NC(=O)[C@H](CCCNC(=N)N)NC(=O)[C@H](CC(=O)O)NC(=O)[C@H](CCSC)NC(=O)[C@H](CCCNC(=N)N)NC(=O)CNC(=O)CNC(=O)[C@H](Cc2ccccc2)NC(=O)[C@@H](NC(=O)[C@H](CO)NC(=O)[C@H](CO)NC(=O)[C@H](CCCNC(=N)N)NC(=O)[C@H](CCCNC(=N)N)NC(=O)[C@H](CC(C)C)NC(=O)[C@@H](N)CO)CSSC[C@@H](C(=O)N[C@@H](CC(N)=O)C(=O)N[C@@H](CO)C(=O)N[C@@H](Cc2ccccc2)C(=O)N[C@@H](CCCNC(=N)N)C(=O)N[C@@H](Cc2ccc(O)cc2)C(=O)O)NC(=O)CNC(=O)[C@H](CC(C)C)NC(=O)CNC(=O)[C@H](CO)NC(=O)[C@H](CCC(N)=O)NC(=O)[C@H](C)NC(=O)CNC1=O [alpha-hANaP, alpha-human atrial natriuretic peptide]
  side-effects to the heart and circulation system, to the bronchial system, to the liver and renal functions, to the gonads, and to the central nervous system: No serious side-effects
